Measured values published in PMC5695911 (Cell Reports, 2017).
Like-named read-outs stand apart in the source and are kept apart here.

Experiments:
[1] = system: human glucagon receptor (hGCGR); format: cell-based
[2] = system: human glucagon-like peptide 1 receptor (hGLP-1R); format: cell-based; settings: COS-7 cells
[3] = system: INS1 cells; experiment: cAMP accumulation in cultured rat β cells; format: cell-based
[4] = system: INS1 cells; format: cell-based, rat
[5] = system: isolated rat pancreases; experiment: Isolated perfused rat pancreas, insulin secretion
[6] = system: diabetic animal models (db/db and ob/ob mice); experiment: Administration of PG 1-61 to diabetic animal models; format: in vivo; settings: 1 pmol; db/db (12 weeks, n=5) and ob/ob mice (14-15 weeks, n=3)
[7] = system: cultured human hepatocytes (HepG2); experiment: cAMP in cultured human hepatocytes; format: cell-based
[8] = system: protein kinase A (PKA), glucose-6-phosphatase (G6P), phosphorylase kinase (PKC-1), glycogen phosphorylase (GP), phosphoenolpyruvate carboxykinase (PECK); format: cell-based, human
[9] = system: rats; settings: i.v., 1 pmol, 20 min

## RSLQDTEEKSRSFSASQADPLSDPDQMNEDKRHSQGTFTSDYSKYLDSRRAQDFVQWLMNT [PG 1-61]
[1]; from LogEC50 vs glucagon
  fold decreased potency compared to native glucagon, hGCGR: 100 fold
[1]; transiently transfected COS-7 cells
  agonist class at hGCGR: full agonist
[2]
  agonist class / potency in words at hGLP-1R: very low potency
[2]; Figure 3B legend
  activation of hGLP-1R, in words: but not the human glucagon-like peptide 1 receptor (hGLP-1R)
[2]; at a concentration of 1 μM
  percent of Emax of GLP-1 reached at 1 μM, hGLP-1R: 38%
[3]
  accumulation of cAMP: dose-dependently increased accumulation of cAMP
[4]; 1 nM, p < 0.001
  insulin release compared to PBS: significantly stimulated insulin release
[4]; 1 nM, p < 0.01
  PG 1-61-induced insulin secretion after siRNA knockdown of rGCGR vs mock: significantly blunted
[4]; PG 1-61 1 nM
  insulin release compared to native glucagon: comparable to that of native glucagon
[5]
  insulin secretion, tAUC: 3,534 ± 321 min × pM
[6]
  inhibition of glucagon secretion in diabetic animals: not seem to inhibit the secretion of glucagon
[7]; HepG2, siRNA GCGR
  stimulated increase in cAMP after siRNA knockdown of hGCGR vs siRNA control: attenuated
[7]; HepG2, 10–1,000 pM
  cAMP: stimulated cAMP production dose-dependently
[8]; 30-min incubation, 1,000 pM
  protein levels of PKA, G6P, PKC-1, GP and PECK: significantly increased protein levels
[8]; 3 hr incubation, compared with 30 min
  protein levels of PKA, G6P, PKC-1, GP and PECK: more pronounced effects
[8]; siRNA GCGR-treated cells, 30-min incubation
  protein levels of the enzymes in siRNA-treated cells: tended to be lower
[9]
  blood glucose, in words: increased significantly
  plasma amino acids (summed molarity): decreased significantly
[9]; no increase with mannitol
  plasma insulin: increased transiently
